# Experimental data reported in patent publication US7163920B2, “Peptide with osteogenic activity” (Ethicon, Inc., priority 2003, dated 2007).
# Key:
# [1] = Elman's test (DTNB) for free sulfhydryl groups, with UV measurement; assay type: physicochemical; details: for Free Sulfhydryl Group Content, Optical density At 412 nM: 0.5 mM peptide in Elman's reaction buffer pH 8.0
# Description: (§1) The formation of inter- or intra-chain disulfide bonds was determined by Elman's test and a reverse phase HPLC method. The peptide represented by SEQ. ID NO: 1 was dissolved in 50 mM sodium acetate, pH 5.2, containing 1 mM EDTA to a stock solution of 10 mM. The stock solution was further diluted with either 50 mM sodium acetate buffer or Elman's reaction buffer ([…], pH 8.0, containing 1 mM EDTA) to a final concentration of 0.5 mM. Samples prepared with sodium acetate buffer were kept at 5° C. for HPLC analysis later.
# The reagent used in Elman's test is 5,5′-dithio-bis-(2-nitrobenzoic acid), also know as DTNB. […] Sulfhydryl groups can be quantitated in a sample by comparison to a standard curve prepared with know concentrations of sulfhydryl-containing compound such as cysteine. The measurement of free sulfhydryl group was performed when the peptide was freshly prepared and after 24 hours incubation at 37° C. The incubation step was designed to mimic the cell culture conditions and to create conditions for inter- or intra-chain disulfide bond formations. To examine the integrity of the peptide after incubation, a UV measurement was performed when the peptide (SEQ. ID NO: 1) was freshly prepared and after 24 hours incubation.
# human chondrocytes = assay: 3H-thymidine incorporation, proliferative response of human chondrocytes; assay type: cell-based; details: for 3H-Thymidine Incorporation Into Chondrocytes: Table 3, 48 hours
# Description: (§2) Primary human osteoblasts were trypsinized and cell counts determined. Cells were resuspended at a concentration of 0.5×10^5 cells/ml in growth medium [Dulbeccos Modified Eagles Medium (DMEM) 10% Fetal Bovine Serum (FBS), 100 units Penicillin and 50 μg/ml Streptomycin]. A 100 μl aliquot of cells was added to each well in a 96 well dish. Cells were allowed to adhere for 24 hours and then refed with DMEM containing 0.5% FBS for 24 hours. Thereafter, several concentrations (10, 100, 500 μg/ml final concentration) of peptide in DMEM containing 0.5% FBS were added to different wells in quadruplicate. These plates were incubated in a cell culture incubator at 37° C. 5% CO2 for 48 hours. Subsequently, 0.1 μCi of ^3H-thymidine was added to each well, and incubated at 37° C. for an additional 3 hours prior to harvest. Cells were lysed and the lysate was placed in scintillation fluid and the amount of thymidine incorporated was determined by beta counting (in Counts Per Minute, or CPM).
# (§3) The effect of the peptide […] (SEQ. ID NO: 1) on stimulation of human chondrocyte proliferation was assessed by thymidine incorporation as described above. The experiments were set up as detailed in Example 1. Following serum starvation, cells were treated with the peptide at concentration of 10, 100, and 500 μg/ml of peptide in DMEM containing 0.5% FBS. These plates were incubated at 37° C. in 5% CO2 for 48 hours and processed for analysis as described in Example 1.
# [2] = Reverse phase HPLC for peptide integrity after disulfide bond formation; assay type: physicochemical
# Description: as §1
# To determine the integrity of the peptide of SEQ. ID NO: 1 after disulfide bond formations, samples in sodium acetate buffer (1G1) and in Elman's reaction buffer (1G2) were subjected to reverse phase HPLC after a 24 hour incubation at 37° C. In particular, a 0–80% acetonitrile gradient in 0.1% TFA was used over 15 minutes at a flow rate of 2 ml/min on a Vydac C-18 column. Detection was at 214 nm.
# [3] = system: Primary human osteoblasts; assay: 3H-thymidine incorporation, proliferative response of human osteoblasts; assay type: cell-based
# Description: as §2
# To help determine a maximal stimulation of cell proliferation, the study was repeated with concentrations of 10, 50, 100, and 200 μg/ml final concentration) of the peptide represented by SEQ. ID NO: 1 in DMEM containing 0.5% FBS.
# The experiments were set up as described for Example 1, with proliferation assessed by measurement of thymidine incorporation into newly synthesized DNA. […] These plates were incubated at 37° C. in 5% CO2 for 48 hours and processed for analysis as mentioned in Example 1.
# human fibroblasts = assay: 3H-thymidine incorporation, proliferative response of human fibroblasts; assay type: cell-based; details: for 3H-Thymidine Incorporation Into Fibroblasts: Table 4 (human fibroblasts per Example 4), 48 hours
# Description: as §2
# as §3, with “fibroblast” for “chondrocyte”
# [4] = after 24 hrs incubation at 37° C.
sequence,measurement,setting,value
"CGGGRWCG (synthesized primer) [ID NO: 1, synthesized by Invitrogen Corporation]",free sulfhydryl group content after incubation,"[1]; after 24 hour incubation at 37° C., 412 nM",reduced significantly
same,"Optical density At 280 nM (UV measurement, integrity of the peptide)",[1]; [4],2.037
same,"Free Sulfhydryl Group Content, Optical density At 412 nM",[1]; [4],0.011
same,change of absorbance at 280 nM,[1]; fresh vs 24 hour old samples,did not change
same,"Optical density At 280 nM (UV measurement, integrity of the peptide)",[1]; freshly prepared,2.127
same,"Free Sulfhydryl Group Content, Optical density At 412 nM",[1]; freshly prepared,0.71
same,stimulation of proliferation of human chondrocytes,"human chondrocytes; 10, 100, and 500 μg/ml",did not stimulate proliferation
same,3H-Thymidine Incorporation Into Chondrocytes,human chondrocytes; peptide 10 μg/ml,803 +/− 96 CPM
same,3H-Thymidine Incorporation Into Chondrocytes,human chondrocytes; peptide 100 μg/ml,726 +/− 88 CPM
same,3H-Thymidine Incorporation Into Chondrocytes,human chondrocytes; peptide 500 μg/ml,640 +/− 80 CPM
same,"disulfide structure formed, reverse phase HPLC","[2]; Elman's reaction buffer pH 8.0 (1G2), 24 hour incubation at 37° C.",formed intra-chain disulfide bonds (ring structure) and not a higher lever structure
same,integrity of the peptide by reverse phase HPLC,[2]; after 24 hours incubation at 37° C.,intact
same,"sulfhydryl state, reverse phase HPLC","[2]; sodium acetate buffer pH 5.2 (1G1), 24 hours incubation",predominately contained free sulfhydryl groups
same,3H-Thymidine Incorporation Into Osteoblasts,"[3]; Table 1A, peptide 0 μg/ml, DMEM 0.5% FBS, 48 hours",591 +/− 39 CPM
same,stimulation of proliferation as compared to controls treated with 0.1% BSA,"[3]; Table 1A, peptide 100 μg/ml",2.5 fold
same,3H-Thymidine Incorporation Into Osteoblasts,"[3]; Table 1A, peptide 100 μg/ml, DMEM 0.5% FBS, 48 hours",1228 +/− 157 CPM
same,stimulation of osteoblast proliferation,"[3]; Table 1A, peptide 500 μg/ml",no statistical stimulation
same,3H-Thymidine Incorporation Into Osteoblasts,"[3]; Table 1A, peptide 500 μg/ml, DMEM 0.5% FBS, 48 hours",629 +/− 46 CPM
same,3H-Thymidine Incorporation Into Osteoblasts,"[3]; Table 1B (repeat study), peptide 10 μg/ml",807 +/− 45 CPM
same,3H-Thymidine Incorporation Into Osteoblasts,"[3]; Table 1B (repeat study), peptide 50 μg/ml",948 +/− 62 CPM
same,3H-Thymidine Incorporation Into Osteoblasts,"[3]; Table 1B (repeat study), peptide 100 μg/ml",1150 +/− 37 CPM
same,3H-Thymidine Incorporation Into Osteoblasts,"[3]; Table 1B (repeat study), peptide 200 μg/ml",1565 +/− 98 CPM
same,concentration of maximal stimulation of proliferation (dose dependant),"[3]; Table 1B, 10-200 μg/ml tested",200 µg/mL
same,stimulation of proliferation relative to cells cultured in the presence of serum,"[3]; Table 1B, maximal stimulation at 200 μg/ml vs 10% FBS",approximately 75%
same,3H-Thymidine Incorporation Into Osteoblasts,"[3]; Table 2 (Example 2), peptide 200 ug/ml",3446 +/− 333 CPM
same,"stimulation of osteoblast proliferation (fold, words)","[3]; Table 2, peptide 200 ug/ml",two fold
same,stimulation of proliferation of human fibroblasts,"human fibroblasts; 10, 100, and 500 μg/ml",did not stimulate proliferation
same,3H-Thymidine Incorporation Into Fibroblasts,human fibroblasts; peptide 10 μg/ml,1281 +/− 86 CPM
same,3H-Thymidine Incorporation Into Fibroblasts,human fibroblasts; peptide 100 μg/ml,1103 +/− 76 CPM
same,3H-Thymidine Incorporation Into Fibroblasts,human fibroblasts; peptide 500 μg/m1,1088 +/− 64 CPM
